Reference: ChEMBL document CHEMBL4715815, “Design, synthesis and biological evaluation of 7H-pyrrolo[2,3-d]pyrimidin-4-amine derivatives as selective Btk inhibitors with improved pharmacokinetic properties for the treatment of rheumatoid arthritis” (Eur J Med Chem, 2018)
The source made the active and inactive calls. The calls are words filed in the database; no cut-off is given here.

Experiments:
[1] = target: Tyrosine-protein kinase Yes (Homo sapiens, UniProt P07947); assay: Inhibition of recombinant human YES using biotinyl-beta Abeta-Abeta AYQAEENTYDEYEN as substrate incubate for 30 mins by LANCE assay
[2] = Toxicity in BALB/c mouse assessed as effect on heart at 2 g/kg, po measured after 7 days of administration by histopathological analysis; details: in vivo, 168 h
[3] = target: T1, Tyrosine-protein kinase BTK (Homo sapiens, UniProt Q06187); assay: Inhibition of BTK in human U2932 cells assessed as reduction in BTK Y551 phosphorylation at 0.03 to 10 uM incubated for 1 hr by Western blot analysis; format: cell-based; details: dose 0.03-10 µM
[4] = target: T1, Tyrosine-protein kinase BTK; assay: Inhibition of BTK (unknown origin) by caliper mobility shift assay
[5] = Metabolic stability in rat liver microsomes assessed as half life at 100 uM/L measured upto 90 mins by LC-MS/MS analysis; format: ADME, Microsome
HEK293 = assay: Cytotoxicity against human HEK293 cells assessed as reduction in cell viability incubated for 72 hrs by MTT assay; format: ADME, cell-based; details: HEK293, 72 h
[6] = Metabolic stability in rat liver microsomes assessed as intrinsic clearance at 100 uM/L measured upto 90 mins by LC-MS/MS analysis; format: ADME, Microsome; details: 1.5 h
THP-1 = assay: Cytotoxicity against human THP-1 cells assessed as reduction in cell viability incubated for 72 hrs by MTT assay; format: ADME, cell-based; details: THP-1, 72 h
[7] = target: Mitogen-activated protein kinase kinase kinase 3 (Homo sapiens, UniProt Q99759); assay: Inhibition of MEKK3 (unknown origin)
[8] = Half life in Sprague-Dawley rat at 3 mg/kg, iv measured up to 24 hrs by LC-MS/MS analysis; format: ADME, organism-based; details: in vivo
[9] = target: Calcium/calmodulin-dependent protein kinase type II subunit beta (Homo sapiens, UniProt Q13554); assay: Inhibition of CAMK2 (unknown origin)
[10] = target: T1, Tyrosine-protein kinase BTK; assay: Inhibition of BTK in human U2932 cells assessed as reduction in BTK Y223 phosphorylation incubated for 1 hr by Western blot analysis; format: cell-based; details: dose 0.03-10 µM
[11] = Tmax in Sprague-Dawley rat at 3 mg/kg, po measured up to 24 hrs by LC-MS/MS analysis; format: ADME, organism-based; details: in vivo
[12] = target: NT-3 growth factor receptor (Homo sapiens, UniProt Q16288); assay: Inhibition of TRKc (unknown origin)
[13] = target: Dual specificity mitogen-activated protein kinase kinase 1 (Homo sapiens, UniProt Q02750); assay: Inhibition of recombinant human MEK1 using inactivated ERK2 as substrate incubate for 60 mins by LANCE assay
[14] = Metabolic stability in mouse liver microsomes assessed as intrinsic clearance at 100 uM/L measured upto 90 mins by LC-MS/MS analysis; format: ADME, Microsome; details: 1.5 h
[15] = Toxicity in BALB/c mouse assessed as effect on kidney at 2 g/kg, po measured after 7 days of administration by histopathological analysis; details: in vivo, 168 h
[16] = target: Mitogen-activated protein kinase kinase kinase 7 (Homo sapiens, UniProt O43318); assay: Inhibition of recombinant human TAK1 using Ulight-FLGFTYVAP as substrate incubate for 90 mins by LANCE assay
[17] = Toxicity in BALB/c mouse assessed as clinical signs at 2 g/kg, po measured after 7 days of administration; details: in vivo, 168 h
[18] = target: Dual specificity mitogen-activated protein kinase kinase 7 (Homo sapiens, UniProt O14733); assay: Inhibition of MKK7beta (unknown origin)
[19] = Metabolic stability in dog liver microsomes assessed as intrinsic clearance at 100 uM/L measured upto 90 mins by LC-MS/MS analysis; format: ADME, Canis lupus familiaris, Microsome; details: 1.5 h
[20] = target: T1, Tyrosine-protein kinase BTK; assay: Inhibition of BTK in human Daudi cells assessed as reduction in BTK Y551 phosphorylation at 0.03 to 10 uM incubated for 1 hr by Western blot analysis; format: cell-based; details: dose 0.03-10 µM
Mus musculus [21] = assay: Antiarthritic activity in DBA/1J mouse model of collagen-induced arthritis assessed as reduction in paw thickness at 20 mg/kg, po administered for 30 days and measured on day 30; format: functional, organism-based; details: time 30.0 day
Mus musculus [22] = assay: Antiarthritic activity in DBA/1J mouse model of collagen-induced arthritis at 20 mg/kg, po administered for 30 days and measured on day 30; format: functional, organism-based; details: time 30.0 day
[23] = target: Tyrosine-protein kinase Lyn (Homo sapiens, UniProt P07948); assay: Inhibition of recombinant human LYN using biotinyl-beta Abeta-Abeta AKVEKIGEGTYGVVYK as substrate incubate for 120 mins by LANCE assay
[24] = target: Serine/threonine-protein kinase mTOR (Homo sapiens, UniProt P42345); assay: Inhibition of mTOR (unknown origin)
[25] = target: Ribosomal protein S6 kinase beta-1 (Homo sapiens, UniProt P23443); assay: Inhibition of recombinant human p70S6K using CREBtide as substrate incubate for 15 mins by LANCE assay
[26] = target: T1, Tyrosine-protein kinase BTK; assay: Inhibition of BTK in human Raji cells assessed as reduction in PLCgamma2 Y1217 phosphorylation at 0.03 to 10 uM incubated for 1 hr by Western blot analysis; format: cell-based; details: dose 0.03-10 µM
[27] = target: Tyrosine-protein kinase Fyn (Homo sapiens, UniProt P06241); assay: Inhibition of recombinant human FYN using biotinyl-beta Abeta-Abeta AYQAEENTYDEYEN as substrate incubate for 60 mins by LANCE assay
[28] = Tmax in Sprague-Dawley rat at 3 mg/kg, iv measured up to 24 hrs by LC-MS/MS analysis; format: ADME, organism-based; details: in vivo
[29] = target: Tyrosine-protein kinase JAK2 (Homo sapiens, UniProt O60674); assay: Inhibition of recombinant human JAK2 using Ulight-CAGAGAIETDKEYYTVKD as substrate incubate for 60 mins by LANCE assay
[30] = target: Calcium/calmodulin-dependent protein kinase type IV (Homo sapiens, UniProt Q16566); assay: Inhibition of CAMK4 (unknown origin)
[31] = target: Proto-oncogene tyrosine-protein kinase receptor Ret (Homo sapiens, UniProt P07949); assay: Inhibition of RET (unknown origin)
[32] = Cmax in Sprague-Dawley rat at 3 mg/kg, po measured up to 24 hrs by LC-MS/MS analysis; format: ADME, organism-based; parameters: route oral, dose 3 mg/kg, time <=24; details: in vivo
[33] = Metabolic stability in dog liver microsomes assessed as half life at 100 uM/L measured upto 90 mins by LC-MS/MS analysis; format: ADME, Canis lupus familiaris, Microsome
[34] = Toxicity in BALB/c mouse assessed as effect on spleen at 2 g/kg, po measured after 7 days of administration by histopathological analysis; details: in vivo, 168 h
L02 = assay: Cytotoxicity against human L02 cells assessed as reduction in cell viability incubated for 72 hrs by MTT assay; format: ADME, cell-based; details: L02, 72 h
[35] = target: Mitogen-activated protein kinase kinase kinase 2 (Homo sapiens, UniProt Q9Y2U5); assay: Inhibition of MEKK2 (unknown origin)
Mus musculus [36] = assay: Antiarthritic activity in DBA/1J mouse model of collagen-induced arthritis assessed as reduction in edema formation at 20 mg/kg, po administered for 30 days and measured on day 30; format: functional, organism-based; details: time 30.0 day

T1 sequence (Q06187 whole entry): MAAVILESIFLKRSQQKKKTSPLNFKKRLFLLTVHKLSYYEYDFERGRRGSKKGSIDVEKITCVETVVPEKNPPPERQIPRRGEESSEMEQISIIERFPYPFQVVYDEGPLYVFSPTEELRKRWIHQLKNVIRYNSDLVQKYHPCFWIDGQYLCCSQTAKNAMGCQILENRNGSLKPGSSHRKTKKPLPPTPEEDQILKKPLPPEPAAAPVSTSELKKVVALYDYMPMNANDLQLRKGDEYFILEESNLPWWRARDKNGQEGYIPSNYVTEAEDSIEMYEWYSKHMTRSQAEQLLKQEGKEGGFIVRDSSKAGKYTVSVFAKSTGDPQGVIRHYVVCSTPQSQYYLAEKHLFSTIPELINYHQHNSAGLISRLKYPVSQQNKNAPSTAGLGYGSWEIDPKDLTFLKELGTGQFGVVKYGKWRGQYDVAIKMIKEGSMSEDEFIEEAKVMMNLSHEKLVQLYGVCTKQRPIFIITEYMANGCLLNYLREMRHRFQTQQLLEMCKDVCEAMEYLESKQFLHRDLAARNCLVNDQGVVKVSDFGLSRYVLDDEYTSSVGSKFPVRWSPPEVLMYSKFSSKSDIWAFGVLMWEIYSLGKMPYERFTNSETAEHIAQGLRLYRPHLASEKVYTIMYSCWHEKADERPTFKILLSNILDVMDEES
Sequence of Mitogen-activated protein kinase kinase kinase 7 (O43318 whole entry): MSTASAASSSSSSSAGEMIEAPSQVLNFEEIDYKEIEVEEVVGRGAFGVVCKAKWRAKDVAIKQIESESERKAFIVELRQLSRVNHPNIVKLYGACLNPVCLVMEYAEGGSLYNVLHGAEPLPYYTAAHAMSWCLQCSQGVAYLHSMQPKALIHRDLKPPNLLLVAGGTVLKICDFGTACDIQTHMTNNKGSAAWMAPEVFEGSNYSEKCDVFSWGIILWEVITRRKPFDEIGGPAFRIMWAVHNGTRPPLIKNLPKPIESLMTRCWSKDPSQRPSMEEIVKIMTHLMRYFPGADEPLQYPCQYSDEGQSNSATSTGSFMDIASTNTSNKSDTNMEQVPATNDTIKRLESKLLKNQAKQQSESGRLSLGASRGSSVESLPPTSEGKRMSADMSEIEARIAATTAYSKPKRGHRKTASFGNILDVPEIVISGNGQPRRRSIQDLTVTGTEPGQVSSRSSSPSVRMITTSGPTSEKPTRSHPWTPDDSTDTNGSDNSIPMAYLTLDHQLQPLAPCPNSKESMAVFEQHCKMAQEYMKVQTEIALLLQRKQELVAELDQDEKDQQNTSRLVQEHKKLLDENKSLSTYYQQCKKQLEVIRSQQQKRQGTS
Sequence of Dual specificity mitogen-activated protein kinase kinase 1 (Q02750 whole entry): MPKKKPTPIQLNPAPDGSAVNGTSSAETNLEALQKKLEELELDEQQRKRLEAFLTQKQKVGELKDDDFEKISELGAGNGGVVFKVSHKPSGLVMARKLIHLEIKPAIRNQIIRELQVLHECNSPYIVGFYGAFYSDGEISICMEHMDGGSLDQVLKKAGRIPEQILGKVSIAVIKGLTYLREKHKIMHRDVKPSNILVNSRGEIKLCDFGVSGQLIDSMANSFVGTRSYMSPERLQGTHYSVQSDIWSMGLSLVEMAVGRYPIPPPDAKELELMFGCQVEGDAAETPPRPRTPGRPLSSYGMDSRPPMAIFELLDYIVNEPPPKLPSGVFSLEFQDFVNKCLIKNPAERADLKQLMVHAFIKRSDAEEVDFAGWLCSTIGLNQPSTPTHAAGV
Sequence of NT-3 growth factor receptor (Q16288 whole entry): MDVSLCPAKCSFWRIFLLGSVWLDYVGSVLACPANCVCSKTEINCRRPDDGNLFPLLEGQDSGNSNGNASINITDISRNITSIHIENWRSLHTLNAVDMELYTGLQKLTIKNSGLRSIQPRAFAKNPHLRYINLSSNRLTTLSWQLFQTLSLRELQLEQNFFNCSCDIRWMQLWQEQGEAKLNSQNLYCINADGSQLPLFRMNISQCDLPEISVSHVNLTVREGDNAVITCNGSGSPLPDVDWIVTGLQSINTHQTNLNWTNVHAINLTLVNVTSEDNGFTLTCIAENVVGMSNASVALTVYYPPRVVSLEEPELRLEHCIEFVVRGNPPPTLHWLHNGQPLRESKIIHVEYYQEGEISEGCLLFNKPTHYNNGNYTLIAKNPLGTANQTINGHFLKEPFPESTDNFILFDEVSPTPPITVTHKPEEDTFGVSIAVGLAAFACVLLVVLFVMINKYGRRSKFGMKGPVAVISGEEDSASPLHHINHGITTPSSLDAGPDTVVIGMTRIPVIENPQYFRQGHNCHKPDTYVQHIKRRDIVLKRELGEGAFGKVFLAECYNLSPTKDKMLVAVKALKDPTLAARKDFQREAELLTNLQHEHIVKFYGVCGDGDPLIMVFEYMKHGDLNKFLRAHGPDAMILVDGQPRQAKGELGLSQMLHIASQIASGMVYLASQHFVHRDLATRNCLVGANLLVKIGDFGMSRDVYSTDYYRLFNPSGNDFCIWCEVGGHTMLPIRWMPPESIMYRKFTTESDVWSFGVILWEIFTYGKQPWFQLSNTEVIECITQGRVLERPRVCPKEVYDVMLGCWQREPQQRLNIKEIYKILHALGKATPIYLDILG
Sequence of Proto-oncogene tyrosine-protein kinase receptor Ret (P07949 whole entry): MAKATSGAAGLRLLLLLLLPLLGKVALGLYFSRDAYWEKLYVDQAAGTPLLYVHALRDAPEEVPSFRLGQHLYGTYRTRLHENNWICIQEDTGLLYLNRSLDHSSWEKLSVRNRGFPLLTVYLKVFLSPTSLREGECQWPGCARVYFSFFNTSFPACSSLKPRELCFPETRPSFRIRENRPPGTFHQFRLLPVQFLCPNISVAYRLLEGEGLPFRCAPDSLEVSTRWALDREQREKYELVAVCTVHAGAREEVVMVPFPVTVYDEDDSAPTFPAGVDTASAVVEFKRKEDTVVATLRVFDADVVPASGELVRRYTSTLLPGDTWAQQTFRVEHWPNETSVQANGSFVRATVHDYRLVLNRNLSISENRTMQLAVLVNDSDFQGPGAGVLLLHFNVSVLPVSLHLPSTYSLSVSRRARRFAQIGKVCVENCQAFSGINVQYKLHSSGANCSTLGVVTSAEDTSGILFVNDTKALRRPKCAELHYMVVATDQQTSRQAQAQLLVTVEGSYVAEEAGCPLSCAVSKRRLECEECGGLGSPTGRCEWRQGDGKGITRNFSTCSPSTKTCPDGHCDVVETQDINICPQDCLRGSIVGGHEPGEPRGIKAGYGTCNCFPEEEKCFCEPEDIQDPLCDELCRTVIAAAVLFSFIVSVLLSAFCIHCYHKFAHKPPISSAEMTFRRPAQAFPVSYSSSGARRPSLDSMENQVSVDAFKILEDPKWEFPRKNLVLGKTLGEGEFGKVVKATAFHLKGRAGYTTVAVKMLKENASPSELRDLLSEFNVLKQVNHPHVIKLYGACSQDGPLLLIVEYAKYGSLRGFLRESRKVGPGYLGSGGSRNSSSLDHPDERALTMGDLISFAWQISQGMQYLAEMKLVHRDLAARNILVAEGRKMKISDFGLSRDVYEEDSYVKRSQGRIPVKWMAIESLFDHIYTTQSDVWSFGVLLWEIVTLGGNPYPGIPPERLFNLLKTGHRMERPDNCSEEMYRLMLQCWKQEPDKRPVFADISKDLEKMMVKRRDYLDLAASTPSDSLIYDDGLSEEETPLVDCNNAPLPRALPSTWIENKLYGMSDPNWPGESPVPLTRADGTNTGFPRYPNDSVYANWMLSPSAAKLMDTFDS
Sequence of Mitogen-activated protein kinase kinase kinase 2 (Q9Y2U5 whole entry): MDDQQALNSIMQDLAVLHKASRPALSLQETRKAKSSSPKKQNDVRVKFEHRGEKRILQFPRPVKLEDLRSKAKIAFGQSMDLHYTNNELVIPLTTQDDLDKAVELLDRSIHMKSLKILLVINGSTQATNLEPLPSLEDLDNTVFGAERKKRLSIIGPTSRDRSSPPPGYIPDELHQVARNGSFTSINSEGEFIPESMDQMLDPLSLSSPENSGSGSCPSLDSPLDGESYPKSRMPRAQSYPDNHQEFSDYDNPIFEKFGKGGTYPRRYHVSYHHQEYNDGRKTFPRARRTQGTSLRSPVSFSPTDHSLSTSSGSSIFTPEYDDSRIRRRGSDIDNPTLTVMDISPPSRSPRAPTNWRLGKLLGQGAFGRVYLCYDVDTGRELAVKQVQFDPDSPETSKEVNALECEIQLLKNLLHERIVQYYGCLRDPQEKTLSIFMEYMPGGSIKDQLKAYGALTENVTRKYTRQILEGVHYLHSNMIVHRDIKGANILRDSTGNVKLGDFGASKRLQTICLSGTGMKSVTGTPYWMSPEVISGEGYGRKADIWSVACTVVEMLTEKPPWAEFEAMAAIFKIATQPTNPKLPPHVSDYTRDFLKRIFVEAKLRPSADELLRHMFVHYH
Sequence of Calcium/calmodulin-dependent protein kinase type II subunit beta (Q13554 whole entry): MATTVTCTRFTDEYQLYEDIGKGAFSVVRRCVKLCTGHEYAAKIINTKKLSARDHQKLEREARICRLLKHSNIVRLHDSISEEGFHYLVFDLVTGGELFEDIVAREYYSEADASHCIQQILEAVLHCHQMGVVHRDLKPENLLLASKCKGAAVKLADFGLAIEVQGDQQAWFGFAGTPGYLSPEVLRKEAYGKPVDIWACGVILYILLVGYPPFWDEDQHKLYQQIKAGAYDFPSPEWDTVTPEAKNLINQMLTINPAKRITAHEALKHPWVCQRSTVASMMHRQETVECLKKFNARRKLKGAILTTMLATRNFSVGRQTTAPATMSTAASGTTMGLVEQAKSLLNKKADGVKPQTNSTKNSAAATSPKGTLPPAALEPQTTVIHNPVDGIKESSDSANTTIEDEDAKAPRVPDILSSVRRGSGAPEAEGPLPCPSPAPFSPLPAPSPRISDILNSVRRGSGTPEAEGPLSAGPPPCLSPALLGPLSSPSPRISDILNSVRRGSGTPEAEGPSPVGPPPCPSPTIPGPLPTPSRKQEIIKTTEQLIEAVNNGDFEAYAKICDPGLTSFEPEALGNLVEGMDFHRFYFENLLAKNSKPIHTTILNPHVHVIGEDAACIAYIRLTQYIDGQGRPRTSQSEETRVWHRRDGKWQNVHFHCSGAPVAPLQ

## C=CC(=O)N1CCC(Cn2cc(-c3ccc4c(c3)OCO4)c3c(N)ncnc32)CC1
[1]
  IC50: 0.146 µM
[2]
  Activity: Non-Toxic
[3]
  inhibition: inactive
[4]
  IC50: 0.0217 µM
[5]
  half-life at 100 µM: 3.12 h
HEK293
  IC50: 34.2 µM
[6]
  CLH: 7.4 µL/min/mg
THP-1
  IC50: 38.9 µM
[7]
  IC50: > 10 µM
[8]
  t1/2: 5.18 h
[9]
  IC50: > 10 µM
[10]
  inhibition: Dose-dependent effect
[11]
  Tmax: 0.96 h
[12]
  IC50: > 10 µM
[13]
  IC50: > 10 µM
[14]
  CLH: 5.4 µL/min/mg
[15]
  Activity: Non-Toxic
[16]
  IC50: > 10 µM
[17]
  Activity: Non-Toxic
[18]
  IC50: > 10 µM
[19]
  CLH: 4.4 µL/min/mg
[20]
  inhibition: inactive
Mus musculus [21]
  Activity: Active
Mus musculus [22]
  Activity: Active
[23]
  IC50: 0.259 µM
[24]
  IC50: > 10 µM
[25]
  IC50: > 10 µM
[26]
  inhibition: Active
[27]
  IC50: 1.01 µM
[28]
  Tmax: 6.6 min
[29]
  IC50: > 10 µM
[30]
  IC50: > 10 µM
[31]
  IC50: 0.64 µM
[32]
  Cmax: 258 ng/mL
[33]
  half-life at 100 µM: 5.25 h
[34]
  Activity: Non-Toxic
L02
  IC50: 31.3 µM
[35]
  IC50: > 10 µM
Mus musculus [36]
  Activity: Active
